Several values for one entry are separate records, joined by “and”; a condition that tells them apart may be missing. Equal entries are not always repeated.
How the values were obtained:
Rat Hippocampal Cultures = experiment: Cell Titer Glow/Cell Viability in vitro assay, rat hippocampal cultures, insult with 150 μM H2O2; format: cell-based; settings: for Cell viability (Cell Titer Glow), single plate / Cell viability (Cell Titer Glow), Mean: rat hippocampal cultures, 150 μM H2O2 insult; for Cell viability (Cell Titer Glow), single plate: individual plates (each in triplicate), vehicle 0.5-0.6; for Cell viability (Cell Titer Glow), Mean: mean of 3 plates (n=9), vehicle mean 0.5
Procedure: (§1) Cell Titer Glow/Cell Viability In Vitro Assay
(§2) The assay was run according to the procedure listed within the insert of the kit purchased from Promega (see attachment at the end of the application).
(§3) Cell Cultures were prepared as follows. Dissociated hippocampal and cortical cell cultures were established from embryonic day 18 rat fetuses. The fetuses were removed via cesarean section from pregnant dams (Harlan Sprague-Dawley) anesthetized with halothane according to the AVMA Panel on Euthanasia. Pups were decapitated and the brains were removed and placed in Hank's Balanced Salt solution (1×HBSS; Gibco, Rockville, Md.). The hippocampi and cortices were dissected out and pooled according to tissue-type. Tissue was trypsinized for 15 min (1 mg/ml trypsin-HBSS; Worthington, Lakewood, N.J.), rinsed with fresh HBSS, incubated in trypsin inhibitor (1 mg/ml; Sigma, St. Louis, Mo.) for 5 min, rinsed again with fresh HBSS and then triturated in 1 ml fresh HBSS with a fire-polished glass pipette. Dissociated cells were seeded at 10,000 cells/well onto poly-D-lysine coated 96-well plates (BD BioScience, Bedford, Ma.) containing 100 ul/well Eagle's Minimal Essential Media (MEM; Gibco) supplemented with 26 mM NaHCO3 (Sigma), 40 mM glucose (Sigma), 20 mM KCl (Sigma), 1 mM sodium pyruvate (Sigma), 10% (v/v) heat-inactivated fetal bovine serum (Hyclone, Logan, Utah), and 0.001% gentamicin sulfate (Sigma) (pH 7.4). Serum-free cultures were plated and maintained in Neurobasal medium+B27 supplement (Gibco). Cells were allowed to attach for 24 h in a humidified 37° C. 5% CO2 incubator before experimental treatment.
(§4) Test compounds were prepared as follows: A 10 mM stock in DMSO of each compound was diluted 1:50 in DPBS rendering a final stock of 200 μM. […] Equal amounts of vehicle or diluted compound were added to each culture well.
(§5) A 30% stock solution of hydrogen peroxide (H2O2; Sigma) was diluted with DPBS 1:100 to yield a […] stock. Five microliters of vehicle or H2O2 stock solution was added to each 100 ul culture well to yield a final concentration of 150 uM.
(§6) Note that in the data listed below, each plate was run in triplicate for a total of n=9.

[1] = tested on: Rat Cerebral Cortical Cultures; experiment: Cell Titer Glow/Cell Viability in vitro assay, rat cerebral cortical cultures, insult with 150 μM H2O2; format: cell-based; settings: 150 μM H2O2 insult; for Cell viability (Cell Titer Glow), single plate: individual plates (each in triplicate), vehicle 0.8-1.2; for Cell viability (Cell Titer Glow), Mean: mean of 3 plates (n=9)
Procedure: as §1, §2, §3, §4, §5, §6

Row | Compound | melting point [°C] | Cell viability (Cell Titer Glow), single plate (Rat Hippocampal Cultures; compound 0.1 μM) | Cell viability (Cell Titer Glow), Mean (Rat Hippocampal Cultures; compound 0.1 μM, SD 1, **p < 0.01) | Cell viability (Cell Titer Glow), single plate (Rat Hippocampal Cultures; compound 1 μM) | Cell viability (Cell Titer Glow), Mean (Rat Hippocampal Cultures; compound 1 μM, SD 0.6) | Cell viability (Cell Titer Glow), single plate (Rat Hippocampal Cultures; compound 10 μM) | Cell viability (Cell Titer Glow), Mean (Rat Hippocampal Cultures; compound 10 μM, SD 3) | Protection of neurons from death and/or damage from oxidative stress or oxidative injury (Rat Hippocampal Cultures; summary in words of Tables 4 and 5 (rat hippocampal and cerebral cortical cultures, 150 μM H2O2)) | Cell viability (Cell Titer Glow), single plate ([1]; compound 0.1 μM) | Cell viability (Cell Titer Glow), Mean ([1]; compound 0.1 μM, SD 35, vehicle mean 1, *p < 0.05) | Cell viability (Cell Titer Glow), single plate ([1]; compound 1 μM) | Cell viability (Cell Titer Glow), Mean ([1]; compound 1 μM, SD 16, vehicle mean 1) | Cell viability (Cell Titer Glow), single plate ([1]; compound 10 μM) | Cell viability (Cell Titer Glow), Mean ([1]; compound 10 μM, SD 22, vehicle mean 1)
1 | NS(=O)(=O)NCC1CCc2ccccc2O1 (centres unmarked) [Compound #10, Chroman-2-ylmethylsulfamide] | 100 to 101 | – | – | – | – | – | – | – | – | – | – | – | – | –
2 | NS(=O)(=O)NC[C@H]1COc2cc(Cl)ccc2O1 [Compound #8, (2S)-(−)-N-(6-Chloro-2,3-dihydro-benzo[1,4]dioxin-2-ylmethyl)-sulfamide] | – | 24 (2×) and 26 | 25** | 16 and 17 (2×) | 17 | 10 and 14 and 15 | 13 | effective at protecting neurons from death and/or damage from oxidative stress or oxidative injury | 28 and 64 and 97 | 63* | 19 and 51 and 38 | 36 | 10 and 18 and 51 | 26

— patent US20070155823A1, “USE OF BENZO-FUSED HETEROCYCLE SULFAMIDE DERIVATIVES AS NEUROPROTECTIVE AGENTS” (priority 2005, published 2007)
